Assay results from ChEMBL document CHEMBL1201862, “PubChem BioAssay data set” (2004).
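In this assay, cells in 96-well plates receive the compound at five concentrations for 48 hours. Endpoints are linearly interpolated between the surrounding concentrations. GI50 = concentration required for 50% inhibition of growth.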 Activity calls are given as the source filed them. No stated cut-off is given here; in the data, active = GI50 up to about 1.1 µM and inactive = higher.

Key:
Assay in all cases: growth of human tumour cells (NCI), 48 h
[1] = test system: CCRF-CEM
[2] = test system: COLO 205
[3] = test system: EKVX
[4] = test system: HCC 2998
[5] = test system: HCT-116
[6] = test system: HCT-15
[7] = test system: HOP-62
[8] = test system: HOP-92
[9] = test system: M14
[10] = test system: Malme-3M
[11] = test system: NCI-H522
[12] = test system: OVCAR-4
[13] = test system: SF-539
[14] = test system: A498
[15] = test system: CAKI-1
[16] = test system: LOX IMVI
[17] = test system: RXF 393
[18] = test system: UACC-62

SMILES | GI50 [1] | GI50 [2] | GI50 [3] | GI50 [4] | GI50 [5] | GI50 [6] | GI50 [7] | GI50 [8] | GI50 [9] | GI50 [10] | GI50 [11] | GI50 [12] | GI50 [13] | GI50 [14] | GI50 [15] | GI50 [16] | GI50 [17] | GI50 [18]
CCn1c2ccccc2c2ccc3c(c21)C(=O)C=CC3=O | 0.375 µM (active) | 9.55 µM (inactive) | 12.1 µM (inactive) | 20.9 µM (inactive) | 4.47 µM (inactive) | 10.4 µM | 7.52 µM (inactive) | 12.2 µM (inactive) | 3.93 µM (inactive) | 9.86 µM (inactive) | 2.58 µM (inactive) | 4.06 µM (inactive) | 26.2 µM (inactive) |  |  |  |  | 
CC1(c2ccccc2)CC(c2cccc([N+](=O)[O-])c2)=NO1 (stereo not drawn) |  | > 100 µM (inactive) |  | > 100 µM (inactive) | > 100 µM (inactive) | > 100 µM | > 100 µM (inactive) | > 100 µM (inactive) | > 100 µM (inactive) | > 100 µM (inactive) | 30.1 µM (inactive) | > 100 µM (inactive) | > 100 µM (inactive) | > 100 µM (inactive) |  |  |  | 
CCN(CC)c1c(C(=O)/C=C/c2ccc(F)cc2)c(-c2ccccc2)nn(C)c1=O | 2.11 µM (inactive) | 4.25 µM (inactive) | 13.8 µM (inactive) | 3.3 µM (inactive) | 3.87 µM (inactive) | 10.4 µM | 11.6 µM (inactive) | 3.85 µM (inactive) | 12.1 µM (inactive) | 13.3 µM (inactive) | 3.57 µM (inactive) | 4.24 µM (inactive) |  | 7.57 µM (inactive) | 11.6 µM (inactive) | 7.35 µM (inactive) | 3.13 µM (inactive) | 10.3 µM (inactive)
NC1=NN(c2ccccc2)C(=O)C1C(=O)C(=O)Nc1ccc(Cl)c(Cl)c1 (stereo not drawn) | 96.4 µM (inactive) | > 100 µM (inactive) | > 100 µM (inactive) | > 100 µM (inactive) | > 100 µM (inactive) | 68.7 µM | > 100 µM (inactive) | > 100 µM (inactive) | > 100 µM (inactive) | > 100 µM (inactive) | 84.9 µM (inactive) | > 100 µM (inactive) | > 100 µM (inactive) | > 100 µM (inactive) | 55.3 µM (inactive) |  | > 100 µM (inactive) | > 100 µM (inactive)
COc1ccc2ccnc(Cc3ccc(OCc4ccccc4)c(OC)c3)c2c1 | 27.4 µM (inactive) |  | 17.9 µM (inactive) | 19.3 µM (inactive) | 16.1 µM (inactive) | 15.2 µM | 15.8 µM (inactive) |  | 18 µM (inactive) | 16.9 µM (inactive) | 22.8 µM (inactive) | 14.2 µM (inactive) | 17.2 µM (inactive) | 21.8 µM (inactive) | 29.2 µM (inactive) |  |  | 
COC(OC)c1cccnc1C | > 100 µM (inactive) | > 100 µM (inactive) | > 100 µM (inactive) |  | > 100 µM (inactive) | > 100 µM | > 100 µM (inactive) | > 100 µM (inactive) | > 100 µM (inactive) | > 100 µM (inactive) | > 100 µM (inactive) | > 100 µM (inactive) | > 100 µM (inactive) |  | > 100 µM (inactive) | > 100 µM (inactive) | > 100 µM (inactive) | > 100 µM (inactive)
C/C(CC(=O)Nc1cc(Cl)c(Cl)cc1Cl)=N\NS(=O)(=O)c1ccc(C)cc1 | 27.5 µM (inactive) | 26.8 µM (inactive) | 35.3 µM (inactive) | 35.3 µM (inactive) | 23 µM (inactive) |  | 31.8 µM (inactive) | 23.1 µM (inactive) | 34.8 µM (inactive) | 31.2 µM (inactive) | 17.6 µM (inactive) |  | 30.5 µM (inactive) | 53.6 µM (inactive) |  | 39.3 µM (inactive) | 24.9 µM (inactive) | 26.5 µM (inactive)
CCN(CC)C(=O)Cc1c(C(=O)N(CC)CC)c(=O)nc2sccn12 | > 100 µM (inactive) | > 100 µM (inactive) | > 100 µM (inactive) | > 100 µM (inactive) | > 100 µM (inactive) | > 100 µM | > 100 µM (inactive) | > 100 µM (inactive) | > 100 µM (inactive) | > 100 µM (inactive) | > 100 µM (inactive) | > 100 µM (inactive) | > 100 µM (inactive) | > 100 µM (inactive) |  | > 100 µM (inactive) | > 100 µM (inactive) | > 100 µM (inactive)
CON(C)C(=O)CCCO | > 100 µM (inactive) | > 100 µM (inactive) | > 100 µM (inactive) |  | > 100 µM (inactive) | > 100 µM | > 100 µM (inactive) | > 100 µM (inactive) | > 100 µM (inactive) | > 100 µM (inactive) | > 100 µM (inactive) | > 100 µM (inactive) | > 100 µM (inactive) |  | > 100 µM (inactive) |  | > 100 µM (inactive) | > 100 µM (inactive)
c1ccc2c(NCCCCCCNc3cccc4ccccc34)cccc2c1 | 38.8 µM (inactive) | > 100 µM (inactive) | > 100 µM (inactive) | > 100 µM (inactive) | > 100 µM (inactive) | > 100 µM | > 100 µM (inactive) | 50.7 µM (inactive) | > 100 µM (inactive) | > 100 µM (inactive) | > 100 µM (inactive) | 66.1 µM (inactive) | > 100 µM (inactive) | > 100 µM (inactive) | > 100 µM (inactive) |  |  | 64.6 µM (inactive)
O=[N+]([O-])c1cccc(C(O)/C(=N/O)c2nc3ccc(Cl)cc3nc2O)c1 (stereo not drawn) | > 100 µM (inactive) | > 100 µM (inactive) | > 100 µM (inactive) | > 100 µM (inactive) | > 100 µM (inactive) |  | > 100 µM (inactive) | > 100 µM (inactive) | > 100 µM (inactive) | > 100 µM (inactive) | > 100 µM (inactive) | > 100 µM (inactive) | > 100 µM (inactive) |  |  | > 100 µM (inactive) | > 100 µM (inactive) | > 100 µM (inactive)
C=CCC1C(=O)CC2(C)C(CC=C)C(=O)CC12C (stereo not drawn) | > 100 µM (inactive) | > 100 µM (inactive) | > 100 µM (inactive) | > 100 µM (inactive) | > 100 µM (inactive) | > 100 µM | > 100 µM (inactive) | > 100 µM (inactive) | > 100 µM (inactive) | > 100 µM (inactive) | > 100 µM (inactive) | > 100 µM (inactive) | > 100 µM (inactive) |  | > 100 µM (inactive) | > 100 µM (inactive) |  | > 100 µM (inactive)
O=c1n(-c2ccccc2)c(=O)n2c(-c3ccccc3)c(-c3ccccc3)n12 | 31.4 µM (inactive) | 91.6 µM (inactive) | > 100 µM (inactive) | 77.8 µM (inactive) | 37.4 µM (inactive) | 82.4 µM | > 100 µM (inactive) | > 100 µM (inactive) | 52.1 µM (inactive) | > 100 µM (inactive) |  | > 100 µM (inactive) | > 100 µM (inactive) | > 100 µM (inactive) | > 100 µM (inactive) | 72.1 µM (inactive) | 15.9 µM (inactive) | > 100 µM (inactive)
O=Cc1c(O)ccc2ccc(O)c(-c3c(O)ccc4ccc(O)cc34)c12 | 99.3 µM (inactive) | > 100 µM (inactive) |  |  | > 100 µM (inactive) | > 100 µM | > 100 µM (inactive) | 66.7 µM (inactive) | > 100 µM (inactive) | 37.5 µM (inactive) | 80.9 µM (inactive) | > 100 µM (inactive) | 52.7 µM (inactive) | 43.2 µM (inactive) | > 100 µM (inactive) | > 100 µM (inactive) | 44.4 µM (inactive) | 77.8 µM (inactive)
CS(=O)(=O)OCCN1CCN(C(=O)c2ccc(Cl)c3c(Nc4ccc(S(=O)(=O)N=C(N)N)cc4)c4ccccc4nc23)CC1 | > 100 µM (inactive) | > 100 µM (inactive) |  | > 100 µM (inactive) | > 100 µM (inactive) | > 100 µM | > 100 µM (inactive) | > 100 µM (inactive) | > 100 µM (inactive) | > 100 µM (inactive) |  | > 100 µM (inactive) | > 100 µM (inactive) | > 100 µM (inactive) | > 100 µM (inactive) |  | > 100 µM (inactive) | > 100 µM (inactive)
C=Cc1ccc(C)[n+](C[Si](C)(C)O[Si](C)(C)C)c1 | > 100 µM (inactive) | > 100 µM (inactive) | > 100 µM (inactive) | > 100 µM (inactive) | > 100 µM (inactive) | > 100 µM | > 100 µM (inactive) |  | > 100 µM (inactive) | > 100 µM (inactive) | > 100 µM (inactive) | 42.3 µM (inactive) | > 100 µM (inactive) |  | > 100 µM (inactive) | > 100 µM (inactive) |  | > 100 µM (inactive)
Cc1c(O)c(=O)ccn1C1OC(CO)C(O)C1O (stereo not drawn) | 39.5 µM (inactive) | > 100 µM (inactive) | > 100 µM (inactive) |  | 62.1 µM (inactive) | 68.1 µM | > 100 µM (inactive) | > 100 µM (inactive) | > 100 µM (inactive) | > 100 µM (inactive) | > 100 µM (inactive) | > 100 µM (inactive) |  | > 100 µM (inactive) | > 100 µM (inactive) | 56.2 µM (inactive) | > 100 µM (inactive) | 96.2 µM (inactive)
Cc1cc2c(ccc3c(C)cc(=O)oc32)o1 | > 100 µM (inactive) | > 100 µM (inactive) | > 100 µM (inactive) | > 100 µM (inactive) | > 100 µM (inactive) | > 100 µM | > 100 µM (inactive) | > 100 µM (inactive) | > 100 µM (inactive) | > 100 µM (inactive) | > 83.6 µM (inactive) | > 100 µM (inactive) | > 100 µM (inactive) |  | > 100 µM (inactive) | > 100 µM (inactive) | 78.3 µM (inactive) | > 100 µM (inactive)
